# Measured values: paper PMC3905461 (Chembiochem : a European journal of chemical biology, 2013)
# Where “and” joins values, the source holds several entries; their conditions need not be identical. Equal entries are not always repeated.
# What was measured:
# RpaR [1] = target: T1, RpaR (Rhodopseudomonas palustris, UniProt Q6NCZ5); assay: RpaR agonism reporter gene assay; assay type: cell-based; details: for EC50: EC50 value, dose response in R. palustris CGA814 reporter; for activation at 1 µM: read-out: Percent activation; for Drop in agonistic activity relative to 1: compared with 2-fluoro cinnamoyl HL 1; for Percent activation: 1 μM synthetic ligand, relative to p-cAHL at 1 μM, triplicate of triplicate, error < ±10%
# T1 sequence (Q6NCZ5 whole entry): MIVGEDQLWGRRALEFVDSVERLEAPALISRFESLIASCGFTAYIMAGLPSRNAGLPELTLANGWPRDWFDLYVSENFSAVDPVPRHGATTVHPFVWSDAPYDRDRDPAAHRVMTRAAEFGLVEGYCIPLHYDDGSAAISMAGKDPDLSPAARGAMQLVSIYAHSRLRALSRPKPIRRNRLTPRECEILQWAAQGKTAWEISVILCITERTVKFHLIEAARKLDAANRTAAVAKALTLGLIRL
# RpaR [2] = target: T1, RpaR; details: extracts from wild-type R. palustris grown with the aromatic acid; cited from earlier work
# LuxR = details: V. fischeri LuxR; ref 7j, 7l; cited from earlier work
# [3] = tested on: other LuxR-type receptors; details: ref 7j; cited from earlier work
# RpaR [4] = target: T1, RpaR; assay: Competitive RpaR antagonism reporter gene assay against p-cAHL; assay type: cell-based; details: for Percent inhibition: 1 μM synthetic ligand against p-cAHL at its EC50 value (1 nM), negative values indicate agonistic responses, error < ±10%
compound,measurement,setting,value
"O=C(/C=C/c1ccccc1F)N[C@H]1CCOC1=O [Compound 1, 2-fluoro cinnamoyl HL]",EC50,RpaR [1],3.4 nM
same,activation at 1 µM,RpaR [1],99%
O=C(/C=C/c1cccc(F)c1)N[C@H]1CCOC1=O [Compound 2],EC50,RpaR [1],65.6 nM
same,Drop in agonistic activity relative to 1,RpaR [1],20 fold
same,activation at 1 µM,RpaR [1],84%
"O=C(/C=C/c1ccc(F)cc1)N[C@H]1CCOC1=O [Compound 3, 4-fluoro cinnamoyl HL]",Agonistic activity at 1 μM,RpaR [1]; 1 μM,inactive
same,Percent activation,RpaR [1],1%
"O=C(/C=C/c1c(F)cccc1F)N[C@H]1CCOC1=O [Compound 4, 2,6-difluoro cinnamoyl HL]",EC50,RpaR [1],4.8 nM
same,activation at 1 µM,RpaR [1],101%
"O=C(/C=C/c1ccccc1Br)N[C@H]1CCOC1=O [Compound 10, 2-bromo cinnamoyl HL]",EC50,RpaR [1],77.1 nM
same,Drop in agonistic activity relative to 1,RpaR [1],~ 20 fold
same,activation at 1 µM,RpaR [1],118%
"O=C(/C=C/c1ccccc1O)N[C@H]1CCOC1=O [Compound 15, ortho-cAHL]",EC50,RpaR [1],1170 nM
same,activation at 1 µM,RpaR [1],59%
"O=C(/C=C/c1cccc(O)c1)N[C@H]1CCOC1=O [Compound 16, meta-cAHL]",EC50,RpaR [1],144 nM
same,activation at 1 µM,RpaR [1],94%
"O=C(/C=C/c1ccc(O)c(O)c1)N[C@H]1CCOC1=O [Compound 17, caffeoyl HL]",Percent activation,RpaR [1],14%
COc1cc(C=CC(=O)NC2CCOC2=O)ccc1O (stereo not shown) [Compound 18],RpaR agonist activity,RpaR [2],inactive
O=C(CCc1ccc(O)cc1)N[C@H]1CCOC1=O [Compound 19],EC50,RpaR [1],532 nM
same,activation at 1 µM,RpaR [1],72%
same,EC50 value higher than p-cAHL,RpaR [1]; relative to p-cAHL,500 fold
"O=C(/C=C/c1ccccc1)N[C@H]1CCOC1=O [Compound B10, cinnamoyl HL]",EC50,RpaR [1],32.3 nM
same,activation at 1 µM,RpaR [1],65%
"O=C(CCC1CCCCC1)N[C@H]1CCOC1=O [Compound B11, cyclohexyl HL]",LuxR antagonism,LuxR,strong antagonists
"O=C(COc1ccccc1)N[C@H]1CCOC1=O [Compound E14, POHL]",Activity as agonist or antagonist in other LuxR-type receptors,[3],largely inactive
"O=C(COc1cccc([N+](=O)[O-])c1)N[C@H]1CCOC1=O [Compound E25, 3-NO2 POHL]",LuxR antagonism,LuxR,strong antagonists
same,IC50,RpaR [4],238 nM
same,Percent inhibition,RpaR [4],63%
"O=C(CCc1ccc(F)cc1)N[C@H]1CCOC1=O [Compound E29, 4-F PPHL]",LuxR antagonism,LuxR,strong antagonists
same,IC50,RpaR [4],300 nM
same,Percent inhibition,RpaR [4],70%
"O=C(CCc1ccc([N+](=O)[O-])cc1)N[C@H]1CCOC1=O [Compound E37, 4-NO2 PPHL]",LuxR antagonism,LuxR,strong antagonists
same,IC50,RpaR [4],235 nM
same,Percent inhibition,RpaR [4],89%
"O=C(CCc1ccc2c(c1)OCO2)N[C@H]1CCOC1=O [Compound E39, 1,3-benzodioxole PPHL]",IC50,RpaR [4],228 nM
same,Percent inhibition,RpaR [4],63%
"O=C(/C=C/c1ccc(O)cc1)N[C@H]1CCOC1=O [p-cAHL, p-coumaroyl HL, reference compound]",EC50,RpaR [1],1 nM and ~1 nM
